From patent publication US20110052730A1, “Leaves Extract of Panax sp., a Process of Making the Same and Uses Thereof” (UNIGEN, INC., priority 2008, published 2011)

Assay: Physicochemical properties of ginsenosides (soluble in)

Row | SMILES | Soluble in
1 | C=C(CCC=C(C)C)C1CCC2(C)C1[C@H](O)CC1[C@@]3(C)CCC(OC4OC(CO)C(O)C(O)C4OC4OC(CO)C(O)C(O)C4O)C(C)(C)C3CC[C@]12C (some centres unmarked) [Rk1] | Alcohol
2 | CC(C)=CC/C=C(/C)C1CCC2(C)C1[C@H](O)CC1[C@@]3(C)CCC(OC4OC(CO)C(O)C(O)C4OC4OC(CO)C(O)C(O)C4O)C(C)(C)C3CC[C@]12C (some centres unmarked) [Rg5] | Alcohol
